Laboratory results reported in patent publication US6727275B2, “Pyrrolidinone derivatives” (UCB, S.A./N.V., priority 2001, dated 2004).
pIC50: −log10 of the molar value.

Molecular target: T1, CCR2 (Homo sapiens, UniProt P41597)
T1 sequence (P41597 1-360 isoform P41597-2): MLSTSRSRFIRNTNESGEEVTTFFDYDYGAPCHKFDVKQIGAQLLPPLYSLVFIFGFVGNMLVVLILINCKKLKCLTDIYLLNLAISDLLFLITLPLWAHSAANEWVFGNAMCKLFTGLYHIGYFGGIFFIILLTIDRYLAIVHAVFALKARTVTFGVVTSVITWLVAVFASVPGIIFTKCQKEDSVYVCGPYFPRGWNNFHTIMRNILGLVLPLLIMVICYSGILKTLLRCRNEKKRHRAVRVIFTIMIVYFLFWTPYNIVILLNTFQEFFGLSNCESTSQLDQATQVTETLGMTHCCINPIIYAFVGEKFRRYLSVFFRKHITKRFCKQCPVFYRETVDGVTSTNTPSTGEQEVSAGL
Experiment: Binding assay: inhibition of 125I-MCP-1 binding to THP-1 cells
Set-up: CCR2 is also expressed in the human monocytic cell line THP-1; endogenous in cells; host or cells: THP-1 (human monocytic cell line), whole cells
Settings: THP-1 cells, 0.1 nM 125I-MCP-1, 1 hr at room temperature; read-out: Inhibition of 125I-MCP-1 binding to THP-1 cells, IC50
Procedure: Antagonism of the CCR2 receptor is determined by a binding assay using the human monocytic cell line THP-1. Cells are suspended in assay buffer (RPMI+1% BSA+25 mM HEPES) at 3×10^6 cells/ml and an aliquot (180 μl) added to a 0.5 ml siliconized Eppendorf tube. […] After incubation for 1 hr at room temperature, the cell suspension is centrifuged through oil and the cell pellets counted to quantitate cell-bound ligand. Nonspecific (NS) binding of radioligand is determined by the addition of 100 nM cold MCP-1. Control binding is determined by the addition of buffer without compound.

**Q.** `CC(=O)C1=C(O)C(=O)N(c2ccc(Cl)cc2)C1CC1CCCC1` (racemic) [Compound 134, 4-acetyl-1-(4-chlorophenyl)-5-(cyclopentylmethyl)-3-hydroxy-1,5-dihydro-2H-pyrrol-2-one] was tested. Which pIC50 did it give?
**A.** ≥ 5.30

**Q.** How did the pIC50 turn out when `C=C1CCC(C2C(C(C)=O)=C(O)C(=O)N2c2ccc(Cl)cc2F)CC1` (racemic) [Compound 153, 4-acetyl-1-(4-chloro-2-fluorophenyl)-3-hydroxy-5-(4-methylenecyclohexyl)-1,5-dihydro-2H-pyrrol-2-one] was run?
**A.** ≥ 5.30

**Q.** With `CCCC1C(C(C)=O)=C(O)C(=O)N1c1ccc(C)c(C)c1` (racemic) [Compound 74, 4-acetyl-1-(3,4-dimethylphenyl)-3-hydroxy-5-propyl-1,5-dihydro-2H-pyrrol-2-one] as the compound, how does the pIC50 read?
**A.** ≥ 5.30

**Q.** With `CC(=O)C1=C(O)C(=O)N(c2ccc(Cl)cc2F)[C@@H]1C1CCCC1` [Compound 129, (R)-4-acetyl-1-(4-chloro-2-fluorophenyl)-5-cyclopentyl-3-hydroxy-1,5-dihydro-2H-pyrrol-2-one] as the compound, how does the pIC50 read?
**A.** ≥ 5.30

**Q.** With `CCc1cc(N2C(=O)C(O)=C(C(C)=O)C2C2CCCCC2)ccc1Cl` (racemic) [Compound 70, 4-acetyl-1-(4-chloro-3-ethylphenyl)-5-cyclohexyl-3-hydroxy-1,5-dihydro-2H-pyrrol-2-one] as the compound, how does the pIC50 read?
**A.** ≥ 5.30

**Q.** With `CC(=O)C1=C(O)C(=O)N(c2ccc(F)cc2)C1C1CCCCC1` (racemic) [Compound 25, 4-acetyl-5-cyclohexyl-1-(4-fluorophenyl)-3-hydroxy-1,5-dihydro-2H-pyrrol-2-one] as the compound, how does the pIC50 read?
**A.** ≥ 5.30

**Q.** How did the pIC50 turn out when `CC(=O)C1=C(O)C(=O)N(c2ccc3c(c2)CCC3)C1C1CCCCC1` (racemic) [Compound 63, 4-acetyl-5-cyclohexyl-1-(2,3-dihydro-1H-inden-5-yl)-3-hydroxy-1,5-dihydro-2H-pyrrol-2-one] was run?
**A.** ≥ 5.30

**Q.** `CSC1=C(O)C(=O)N(c2ccc(Cl)cc2)C1C1CCCCC1` (racemic) [Compound 128, 1-(4-chlorophenyl)-5-cyclohexyl-3-hydroxy-4-(methylthio)-1,5-dihydro-2H-pyrrol-2-one] was tested. Which pIC50 did it give?
**A.** ≥ 5.30

**Q.** With `CC(=O)C1=C(O)C(=O)N(c2c(F)cc(Br)cc2F)C1C1CCCCC1` (racemic) [Compound 154, 4-acetyl-1-(4-bromo-2,6-difluorophenyl)-5-cyclohexyl-3-hydroxy-1,5-dihydro-2H-pyrrol-2-one] as the compound, how does the pIC50 read?
**A.** ≥ 5.30

**Q.** How did the pIC50 turn out when `CCC(C)C(C)C1C(C(C)=O)=C(O)C(=O)N1c1ccc(C)cc1` (stereo not shown) [Compound 19, 4-acetyl-5-(1,2-dimethylbutyl)-3-hydroxy-1-(4-methylphenyl)-1,5-dihydro-2H-pyrrol-2-one] was run?
**A.** ≥ 5.30

**Q.** `CC(=O)C1=C(O)C(=O)N(c2cccc(Cl)c2)C1C1CCCCC1` (racemic) [Compound 43, 4-acetyl-1-(3-chlorophenyl)-5-cyclohexyl-3-hydroxy-1,5-dihydro-2H-pyrrol-2-one] was tested. Which pIC50 did it give?
**A.** ≥ 5.30

**Q.** How did the pIC50 turn out when `CC(=O)C1=C(O)C(=O)N(c2ccc(Br)cc2)C1c1ccc(Br)cc1` (racemic) [Compound 9, 4-acetyl-1,5-bis(4-bromophenyl)-3-hydroxy-1,5-dihydro-2H-pyrrol-2-one] was run?
**A.** ≥ 5.30

**Q.** `CC(=O)C1=C(O)C(=O)N(c2ccc(F)c(C)c2)C1C1CCCCC1` (racemic) [Compound 64, 4-acetyl-5-cyclohexyl-1-(4-fluoro-3-methylphenyl)-3-hydroxy-1,5-dihydro-2H-pyrrol-2-one] was tested. Which pIC50 did it give?
**A.** ≥ 5.30

**Q.** How did the pIC50 turn out when `CC(=O)C1=C(O)C(=O)N(c2ccc(Cl)c(Cl)c2)C1C1CCCCC1` (racemic) [Compound 48, 4-acetyl-5-cyclohexyl-1-(3,4-dichlorophenyl)-3-hydroxy-1,5-dihydro-2H-pyrrol-2-one] was run?
**A.** ≥ 5.30

**Q.** How did the pIC50 turn out when `CC(=O)C1=C(O)C(=O)N(c2ccc(C)c(Br)c2)C1C1CCCCC1` (racemic) [Compound 73, 4-acetyl-1-(3-bromo-4-methylphenyl)-5-cyclohexyl-3-hydroxy-1,5-dihydro-2H-pyrrol-2-one] was run?
**A.** ≥ 5.30

**Q.** `COC1CCC(C2C(C(C)=O)=C(O)C(=O)N2c2ccc(Cl)cc2)CC1` (racemic) [Compound 132, 4-acetyl-1-(4-chlorophenyl)-3-hydroxy-5-(4-methoxycyclohexyl)-1,5-dihydro-2H-pyrrol-2-one] was tested. Which pIC50 did it give?
**A.** ≥ 5.30
